Assay results reported in patent publication US10576086B2, “Triazine derivatives as interferon-gamma inhibitors” (University of Greenwich, priority 2015, dated 2020).
Like-named read-outs stand apart in the source and are kept apart here.

Tests used:
[1] = test system: IFN-γ production in human peripheral blood mononuclear cells (PBMCs); assay: Experiment 2: IFN-γ production by PHA-stimulated human PBMCs, ELISA; type: cell-based; settings: for [IFN-γ]: PHA 5 μg/ml; for inhibition of IFN-γ production in PBMCs (in words): Experiment 2, human PBMCs; for IC50: human PBMCs, PHA-stimulated, read-out: IC50 (concentration to inhibit IFN-γ production by 50%)
Method: A similar set of tests were carried out, in which three compounds known as CEN-079(3,5-diamino-6-[2-(3,4,5-trichlorothienyl)]-1,2,4-triazine), CEN-092(3,5-diamino-6-(3,5-bistrifluoromethylphenyl)-1,2,4-triazine) and CEN-216(3,5-diamino-6-(2,3-dichlorophenyl)-2,3(2,5)-dihydro-3(5)-imino-2-(2,2,2-trichloroethyl)-1,2,4-triazine) were compared with lamotrigine. CEN-079, CEN-092 and CEN-216 are within the scope of Formulae 1, 2 and 3.
50 ml of blood from three healthy adult donors was collected by venepuncture in heparinised tubes. The blood samples where centrifuged at 3000 rpm for 15 minutes. The supernatant plasma was collected in a centrifuge tube, and centrifuged at 3000 rpm for a further 10 minutes. The supernatant was then collected in a plain tube, and stored at −70° C. for future use.
The cells from the first centrifuged heparinised tube were diluted 1:1 in RPMI-1640, and mixed by multiple inversions. The cell mixture was then slowly layered, using a sterile plastic 3 ml pipette, along a tube wall containing lymphoprep (Nycomed) at a ratio of 2:1 cells/RPMI-1640:Lymphoprep in a 25 ml universal tube. The mixture was centrifuged at 2400 rpm for 30 minutes, and left to stand for 20 minutes. PBMCs were slowly removed from the interface using a sterile plastic pipette, and collected in a 15 ml centrifuge tube.
The cells were washed twice by diluting in RPMI-1640 with 2 mM L-glutamine, 100 U/ml penicillin and 100 μg/ml streptomycin at a ratio of 1:1. The mixture was centrifuged at 3000 rpm for 15 minutes, and the supernatant decanted. PBMCs were then diluted in RPMI-1640 containing 2 mM L-glutamine, 100 U/ml penicillin and 100 μg streptomycin, to make up a volume of 6 ml for subjects 1 and 2, and 9 ml for subject 3.
Cells were counted using an Improved Neubauer haemocytometer (Hawksley, UK) on a light microscope. 10 μl of cell suspension was loaded onto the haemocytometer using a sterile plastic pipette. Cells were counted in five out of 25 1 mm squares, from which the total cell count was calculated.
5 μg/ml PHA was used as a T cell activating agent for the production of IFN-γ. The PBMCs were treated with the four test compounds (lamotrigine, CEN-079, CEN-092, CEN-216) at concentrations of 10 μM, 30 μM and 300 μM to assess their effects on IFN-γ production by the stimulated T cells.
The tests were carried out as for Experiment 1, in which 2×10^6 PBMC/ml, 25 μl of 5% autologous plasma, and 2.63 μl of 5 μg/ml PHA were used. Test compound at each concentration was then added, except for one control case.
10 μM solutions were obtained by adding 1.05 μl of a 5 mM solution of the compounds to the above PBMC-containing solution. 30 μM solutions were obtained by adding 3.15 μl of the 5 mM solution of the compounds. 300 μM solutions were obtained by adding […] solutions of the compounds.
The tubes were covered, gently shaken to mix the contents, and incubated for 24 hours at 37° C. The tubes were then centrifuged at 2500 rpm for 10 minutes. The supernatant was collected in a 3 ml plastic pipette, and aliquots were stored at −70° C. before being analysed.
The test was performed according to the supplier's instructions. Donor samples were diluted 1:1 in phosphate buffered […] (PBS) and assayed simultaneously with IFN-γ standard samples, in duplicate. The standard curve ranged from 15.6 pg/ml to 1000 pg/ml.
A 96-well multiwell microplate (high binding Costar) was prepared, by diluting a capture antibody (720 μg/ml of mouse anti-human IFN-γ) in PBS to a working concentration of 4.0 μg/ml. 100 μl was immediately coated on each well, and left overnight at room temperature. The wells were washed three times in wash buffer, using microplate autowasher (LT-3000, LabTech International Ltd). The remainder of the wash buffer in the wells was removed by blotting on to clean paper towels. The plate was blocked by adding 300 μl Block buffer (1% BSA in PBS) to each well and incubated at room temperature for 1 hour. […]

[2] = test system: IFN-γ production in human peripheral blood mononuclear cells (PBMCs); assay: Experiment 1: IFN-γ production by PHA-stimulated human PBMCs, ELISA; type: cell-based; settings: for IFN-γ Concentration, Mean: mean of first three subjects, 24 h
Method: The ex vivo activity of various compounds towards suppression of IFN-γ production in human peripheral blood mononuclear cells (PBMCs) was studied.
[…] They were not taking any other prescribed medication that could interfere with the results.
The blood was transferred into 50 ml centrifuge tubes (Corning, USA) containing heparin sodium salt 37.5 mg heparin powder diluted in 300-500 μl phosphate buffered saline (PBS) for 50 ml blood), and centrifuged at 2000 rpm for 10 minutes, and the plasma portion was separated. The plasma was further centrifuged at 3000 rpm for 10 minutes, and the supernatant separated and kept for later use.
The blood cells from the initial centrifugation were diluted with an equal volume of RPMI-1640 (Sigma, UK), and layered (2:1) onto Lymphoprep (Axis-Shield, Norway) in 25 ml universal tubes (Bibby Sterilin, UK) for density gradient centrifugation at 2500 rpm for 30 minutes.
PBMCs (lymphocytes and monocytes) were then removed from the interface, diluted in an equal volume of RPMI-1640 and washed twice by centrifugation at 3000 rpm for 10 minutes.
For testing, the PBMCs were re-suspended in a known volume of culture medium containing RPMI-1640 supplemented with 2 mM L-glutamine, 100 U penicillin, and 100 μg streptomycin (Sigma, UK).
The cell count was determined by the use of a haemocytometer using 10 μl of the cell suspension. The number of cells was determined based on a count in 5 random 1 mm squares.
The cell solution was then diluted with the supplemented RPMI-1640 medium to ensure a cell count of 2×10^6 cells/ml.
The PBMC suspension was added to tissue culture tubes (Bibby Sterilin, UK) with 5% autologous plasma, 5 μg/mlphytohaemaglutinin (PHA) to stimulate T-lymphocyte IFN-γ production, and a solution containing various concentrations of the compound to be studied. A control containing no compound was also cultured for each subject.
In the case of lamotrigine, the isethionate salt was used, and diluted with RPMI-1640 to produce 100 μM, 30 μM, 10 μM and 3 μM solutions that were tested on PBMCs from the first three subjects. With PBMC's from the other two subjects, a 300 μM solution was also tested.
For sipatrigine, the mesylate salt was used, and diluted with RPMI-1640 to produce 30 μM, 10 μM, 3 μM and 1 μM solutions. It was tested on PBMCs from the first three subjects only.
The tubes were incubated at 37° C. for 24 hours under a 5% CO2 atmosphere. After incubation, the cells (>75% viable according to trypan blue test) were centrifuged at 3000 prm for 10 minutes, and the cell-free supernatants were collected and stored at −70° C. before analysis for IFN-γ.
Levels of IFN-γ produced by the PBMCs were determined by the DuoSet ELISA Development system for human IFN-γ (RD Systems, UK), with a sensitivity of 15.6-1000 pg/ml.
Capture antibody, detection antibody, standard and streptavidin-HRP (streptavidin conjugated to horseradish peroxidase) were provided. A 96-well microtitre plate (Corning CoStar, flat bottom, polystyrene, high binding microtitre plate, UK) was coated with 100 μl per well of capture antibody (mouse anti-human IFN-γ at 4.0 μg/ml), sealed and incubated overnight. Unbound capture antibody was washed from the wells three times, using a wash buffer (0.05% Tween 20 in PBS). Block buffer (1% bovine serum albumin (BSA) in PBS) was then added. After incubation for 1 hour, the wells were washed, and sample culture supernatants or standards were added. A 7-point standard curve (in the range 15.6-1000 pg/ml) was produced from […] recombinant human IFN-γ using 2-fold serial dilutions in reagent diluent (0.1% BSA, 0.05% Tween 20 in tris-buffered saline (20 mM Trizma base, 150 mM NaCl)). The sealed plates were left to incubate for 2 hours.
After further washing, the detection antibody (biotinylated goat anti-human IFN-γ at 175 ng/ml) was added, and the plates sealed and incubated for a further 2 hours. […]

Row | SMILES | [IFN-γ] vs control ([1]; 10 μM, Subject 1, 24 h) | [IFN-γ] ([1]; 10 μM, Subject 1, 24 h) | [IFN-γ] vs control ([1]; 10 μM, Subject 2, 24 h) | [IFN-γ] ([1]; 10 μM, Subject 2, 24 h) | [IFN-γ] vs control ([1]; 10 μM, Subject 3, 24 h) | [IFN-γ] ([1]; 10 μM, Subject 3, 24 h) | [IFN-γ] vs control ([1]; 30 μM, Subject 1, 24 h) | [IFN-γ] ([1]; 30 μM, Subject 1, 24 h) | [IFN-γ] vs control ([1]; 30 μM, Subject 2, 24 h) | [IFN-γ] ([1]; 30 μM, Subject 2, 24 h) | [IFN-γ] vs control ([1]; 30 μM, Subject 3, 24 h) | [IFN-γ] ([1]; 30 μM, Subject 3, 24 h) | [IFN-γ] vs control ([1]; 300 μM, Subject 1, 24 h) | [IFN-γ] ([1]; 300 μM, Subject 1, 24 h) | [IFN-γ] vs control ([1]; 300 μM, Subject 2, 24 h) | [IFN-γ] ([1]; 300 μM, Subject 2, 24 h) | [IFN-γ] vs control ([1]; 300 μM, Subject 3, 24 h) | [IFN-γ] ([1]; 300 μM, Subject 3, 24 h) | inhibition of IFN-γ production in PBMCs (in words) [1] | further results
1 | Nc1nnc(-c2sc(Cl)c(Cl)c2Cl)c(N)n1 [CEN-079, 3,5-diamino-6-[2-(3,4,5-trichlorothienyl)]-1,2,4-triazine] | 22.1% | 154.5 pg/mL | 36.9% | 757.5 pg/mL | 28.7% | 611.5 pg/mL | 7.60% | 53 pg/mL | 1.80% | 178.5 pg/mL | 2.0% | 41.5 pg/mL | 0.0% | 0.00 pg/mL | 0.0% | 0.0 pg/mL | 0.0% | 0.0 pg/mL | significantly more effective inhibitors compared to lamotrigine | IC50 [1]: 6 µM
2 | Nc1nnc(-c2cc(C(F)(F)F)cc(C(F)(F)F)c2)c(N)n1 [CEN-092, 3,5-diamino-6-(3,5-bistrifluoromethylphenyl)-1,2,4-triazine] | 16.1% | 112.5 pg/mL | 36.0% | 728.5 pg/mL | 19.9% | 423.5 pg/mL | 7.4% | 52.0 pg/mL | 24.6% | 499.0 pg/mL | 4.3% | 91.5 pg/mL | 0.0% | 0.00 pg/mL | 0.0% | 0.0 pg/mL | 6.9% | 146.0 pg/mL | significantly more effective inhibitors compared to lamotrigine | IC50 ([1]; PBMC): 3 µM
3 | N=c1nc(N)c(-c2cccc(Cl)c2Cl)nn1CC(Cl)(Cl)Cl [CEN-216, 5(3)-Amino-6-(2,3-dichlorophenyl)-2,3(2,5)-dihydro-3(5)-imino-2-(2,2,2-trichloroethyl)-1,2,4-triazine] | 0.0% | 0.00 pg/mL | 9.2% | 187.0 pg/mL | 3.9% | 82.0 pg/mL | 0.0% | 0.00 pg/mL | 2.9% | 59.0 pg/mL | 5.7% | 122.0 pg/mL | 0.0% | 0.00 pg/mL | 0.0% | 0.0 pg/mL | 0.0% | 0.0 pg/mL | significantly more effective inhibitors compared to lamotrigine | –
4 | CN1CCN(c2ncc(-c3cc(Cl)cc(Cl)c3Cl)c(N)n2)CC1 [Sipatrigine, 4-amino-2-(4-methyl-1-piperazinyl)-(2,3,5-trichlorophenyl)-pyrimidine] | – | – | – | – | – | – | – | – | – | – | – | – | – | – | – | – | – | – | – | IFN-γ Concentration, Mean ([2]; 1 μM): 1275.07 pg/mL; IFN-γ Concentration, Mean ([2]; 3 μM): 1227.27 pg/mL; IFN-γ Concentration, Mean ([2]; 10 μM): 1331.70 pg/mL; IFN-γ Concentration, Mean ([2]; 30 μM): 892.89 pg/mL; inhibition of IFN-γ production (in words) ([2]; Experiment 1, human PBMCs): did not inhibit IFN-γ production
